Measurements published in ChEMBL document CHEMBL4376834, “Discovery of 4H-Chromen-4-one Derivatives as a New Class of Selective Rho Kinase (ROCK) Inhibitors, which Showed Potent Activity in ex Vivo Diabetic Retinopathy Models” (J Med Chem, 2019).

Assays:
[1] = Intrinsic clearance in rat liver microsomes measured upto 45 mins in presence of NADPH by LC-MS analysis; format: ADME, Microsome; details: read-out: CLH
[2] = biological target: NUAK family SNF1-like kinase 1 (Homo sapiens, UniProt O60285); assay: Inhibition of human recombinant ARK5 (2 to end residues) using KKKVSRSGLYRSP as substrate incubated for 40 mins in presence of [gamma-33ATP] by radiometric scintillation counting analysis
[3] = biological target: Cyclin-dependent kinase-like 3 (Homo sapiens, UniProt Q8IVW4); assay: Inhibition of recombinant full length human CDKL3 using RRRFRPASPLRGPPK as substrate incubated for 120 mins in presence of [gamma-33ATP] by radiometric scintillation counting analysis
[4] = biological target: Casein kinase I isoform gamma-2 (Homo sapiens, UniProt P78368); assay: Inhibition of recombinant human CK1gamma2 (18 to end residues) using KRRRALS(p)VAS as substrate incubated for 40 mins in presence of [gamma-33ATP] by radiometric scintillation counting analysis
[5] = biological target: Mast/stem cell growth factor receptor Kit (Homo sapiens, UniProt P10721); assay: Inhibition of recombinant human C-Kit (544 to end residues) using poly (Glu,Tyr) 4:1 as substrate in presence of [gamma-33ATP] by radiometric scintillation counting analysis
[6] = biological target: Proto-oncogene tyrosine-protein kinase Src (Homo sapiens, UniProt P12931); assay: Inhibition of recombinant human C-Src using […] as substrate incubated 40 mins in presence of [gamma-33ATP] by radiometric scintillation counting analysis
[7] = biological target: Dual specificity tyrosine-phosphorylation-regulated kinase 2 (Homo sapiens, UniProt Q92630); assay: Inhibition of recombinant full length human DYRK2 using casein as substrate after 40 mins in presence of [gamma-33ATP] by radiometric scintillation counting analysis
[8] = Inhibition of recombinant human PKCeta V108L/G109R/L392Q triple mutant (2 to end residues) using ERMRPRKRQGSVRR as substrate incubated for 40 mins in presence of [gamma33P]ATP by radiometric scintillation counting analysis
[9] = biological target: MAP kinase-interacting serine/threonine-protein kinase 2 (Homo sapiens, UniProt Q9HBH9); assay: Inhibition of recombinant full length human MNK2 using myelin basic protein as substrate incubated for 40 mins in presence of [gamma-33ATP by radiometric scintillation counting analysis
[10] = biological target: Platelet-derived growth factor receptor alpha (Homo sapiens, UniProt P16234, V561D); assay: Inhibition of human PDGFRalpha V561D mutant (550 to end residues) using GGMEDIYFEFMGG as substrate measured after 40 mins in presence of [gamma33P]ATP by radiometric scintillation counting analysis
[11] = biological target: Epidermal growth factor receptor (Homo sapiens, UniProt P00533); assay: Inhibition of recombinant human EGFR (696 to end residues) using poly(Glu, Tyr) 4:1 as substrate after 40 mins in presence of [gamma-33ATP] by radiometric scintillation counting analysis
Ephrin type-A receptor 4 = Ephrin type-A receptor 4 (Homo sapiens, UniProt P54764); assay: Inhibition of recombinant human EphA4 (601 to 892 residues) using poly(Glu, Tyr) 4:1 as substrate measured after 40 mins in presence of [gamma33ATP] by radiometric scintillation counting analysis
[12] = biological target: Vascular endothelial growth factor receptor 1 (Homo sapiens, UniProt P17948); assay: Inhibition of recombinant human FLT1 (783 to end residues) using KKKSPGEYVNIEF as substrate after 40 mins in presence of [gamma-33ATP] by radiometric scintillation counting analysis
[13] = biological target: Macrophage colony-stimulating factor 1 receptor (Homo sapiens, UniProt P07333, Y969C); assay: Inhibition of recombinant human FMS Y969C mutant (538 to end residues) using EEEEYEEEEEEYY as substrate after 40 mins in presence of [gamma-33ATP] by radiometric scintillation counting analysis
Rhodopsin kinase GRK1 = Rhodopsin kinase GRK1 (Homo sapiens, UniProt Q15835); assay: Inhibition of recombinant full length human GRK1 using KKKKERLLDDRHD as substrate after 40 mins in presence of [gamma-33ATP] by radiometric scintillation counting analysis
[14] = biological target: Inhibitor of nuclear factor kappa-B kinase subunit alpha (Homo sapiens, UniProt O15111); assay: Inhibition of recombinant full length human IKKalpha using peptide substrate after 40 mins by [gamma-33ATP]by radiometric scintillation counting analysis
[15] = biological target: Serine/threonine-protein kinase PRP4 homolog (Homo sapiens, UniProt Q13523); assay: Inhibition of recombinant human PRP4 (663 to end residues) using casein as substrate incubated for 40 mins in presence of [gamma33P]ATP by radiometric scintillation counting analysis
[16] = biological target: Serine/threonine-protein kinase Sgk3 (Homo sapiens, UniProt Q96BR1); assay: Inhibition of recombinant human SGK3 (119 to end residues) using GRPRTSSFAEGKK as substrate incubated for 40 mins in presence of [gamma33P]ATP by radiometric scintillation counting analysis
[17] = biological target: Serine/threonine-protein kinase PLK2 (Homo sapiens, UniProt Q9NYY3); assay: Inhibition of recombinant human SNK (65 to 409 residues) using casein as substrate incubated for 40 mins in presence of [gamma33P]ATP by radiometric scintillation counting analysis
Angiopoietin-1 receptor = Angiopoietin-1 receptor (Homo sapiens, UniProt Q02763, Q939H/Q940H); assay: Inhibition of recombinant human TIE2 Q939H/Q940H double mutant (771 to end residues) using poly(Glu, Tyr) 4:1 as substrate incubated for 40 mins in presence of [gamma33P]ATP by radiometric scintillation counting analysis
[18] = biological target: BDNF/NT-3 growth factors receptor (Homo sapiens, UniProt Q16620); assay: Inhibition of recombinant human TRKB (455 to end residues) using poly(Glu, Tyr) 4:1 as substrate incubated for 40 mins in presence of [gamma33P]ATP by radiometric scintillation counting analysis
[19] = biological target: Testis-specific serine/threonine-protein kinase 1 (Homo sapiens, UniProt Q9BXA7); assay: Inhibition of recombinant full-length human TSSK1 using KKKVSRSGLYRSP as substrate incubated for 40 mins in presence of [gamma33P]ATP by radiometric scintillation counting analysis
[20] = biological target: Serine/threonine-protein kinase ULK2 (Homo sapiens, UniProt Q8IYT8); assay: Inhibition of recombinant human ULK2 (1 to 306 residues) using casein as substrate incubated for 40 mins in presence of [gamma33P]ATP by radiometric scintillation counting analysis
[21] = biological target: Wee1-like protein kinase 2 (Homo sapiens, UniProt P0C1S8); assay: Inhibition of recombinant full length human WEE1b using LSNLYHQGKFLQTFCGSPLYRRR as substrate incubated for 120 mins in presence of [gamma33P]ATP by radiometric scintillation counting analysis
[22] = biological target: Mitogen-activated protein kinase kinase kinase 20 (Homo sapiens, UniProt Q9NYL2); assay: Inhibition of recombinant full-length human ZAK using MBP as substrate incubated for 40 mins in presence of [gamma33P]ATP by radiometric scintillation counting analysis
Sequence of Mitogen-activated protein kinase kinase kinase 20 (Q9NYL2 whole entry): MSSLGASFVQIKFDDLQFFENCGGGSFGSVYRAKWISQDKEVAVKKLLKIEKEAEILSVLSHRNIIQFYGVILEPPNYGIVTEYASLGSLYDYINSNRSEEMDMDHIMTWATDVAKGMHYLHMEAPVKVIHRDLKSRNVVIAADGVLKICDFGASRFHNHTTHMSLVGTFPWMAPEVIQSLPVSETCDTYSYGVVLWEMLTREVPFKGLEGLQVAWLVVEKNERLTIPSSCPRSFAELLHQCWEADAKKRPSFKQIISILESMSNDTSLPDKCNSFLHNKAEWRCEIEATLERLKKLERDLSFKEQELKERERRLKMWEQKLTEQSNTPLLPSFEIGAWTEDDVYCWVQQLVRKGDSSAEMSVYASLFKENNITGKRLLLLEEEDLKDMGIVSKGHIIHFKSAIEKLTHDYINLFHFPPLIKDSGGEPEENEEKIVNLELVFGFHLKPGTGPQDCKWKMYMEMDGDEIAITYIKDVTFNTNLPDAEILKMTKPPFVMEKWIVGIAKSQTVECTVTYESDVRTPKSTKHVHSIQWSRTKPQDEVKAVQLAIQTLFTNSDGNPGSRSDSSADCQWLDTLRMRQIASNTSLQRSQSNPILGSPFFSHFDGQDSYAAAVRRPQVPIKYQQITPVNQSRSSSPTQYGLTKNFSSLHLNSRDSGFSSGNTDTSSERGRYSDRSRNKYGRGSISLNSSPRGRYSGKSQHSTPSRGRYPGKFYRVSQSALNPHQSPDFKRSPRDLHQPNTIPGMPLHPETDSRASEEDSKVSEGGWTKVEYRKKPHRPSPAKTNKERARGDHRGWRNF

Sequence of Testis-specific serine/threonine-protein kinase 1 (Q9BXA7 whole entry, the tested form may be a part): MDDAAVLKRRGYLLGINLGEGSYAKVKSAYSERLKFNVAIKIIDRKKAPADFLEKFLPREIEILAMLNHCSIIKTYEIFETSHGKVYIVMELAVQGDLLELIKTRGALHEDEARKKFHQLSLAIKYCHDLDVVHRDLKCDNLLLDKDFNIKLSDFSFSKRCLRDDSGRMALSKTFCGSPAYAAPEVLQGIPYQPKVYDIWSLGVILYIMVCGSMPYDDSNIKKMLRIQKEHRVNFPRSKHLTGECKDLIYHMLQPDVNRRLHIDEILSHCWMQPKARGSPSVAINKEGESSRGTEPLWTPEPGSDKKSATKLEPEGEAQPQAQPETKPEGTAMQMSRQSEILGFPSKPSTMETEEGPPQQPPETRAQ
Sequence of Serine/threonine-protein kinase Sgk3 (Q96BR1 whole entry, the tested form may be a part): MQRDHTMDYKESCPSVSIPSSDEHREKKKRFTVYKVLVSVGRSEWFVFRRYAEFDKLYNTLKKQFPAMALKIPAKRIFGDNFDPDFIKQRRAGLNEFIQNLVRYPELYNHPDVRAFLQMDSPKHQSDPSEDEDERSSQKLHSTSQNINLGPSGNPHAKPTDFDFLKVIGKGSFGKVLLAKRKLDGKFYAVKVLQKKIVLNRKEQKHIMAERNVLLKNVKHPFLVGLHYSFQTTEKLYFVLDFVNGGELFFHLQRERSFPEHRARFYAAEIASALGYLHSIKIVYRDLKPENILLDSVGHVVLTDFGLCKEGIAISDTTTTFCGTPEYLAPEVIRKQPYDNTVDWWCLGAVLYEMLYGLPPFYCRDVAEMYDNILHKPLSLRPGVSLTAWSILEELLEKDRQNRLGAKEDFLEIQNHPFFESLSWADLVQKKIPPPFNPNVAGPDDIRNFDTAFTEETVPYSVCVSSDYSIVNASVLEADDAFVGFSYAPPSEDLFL
Sequence of Casein kinase I isoform gamma-2 (P78368 whole entry, canonical isoform): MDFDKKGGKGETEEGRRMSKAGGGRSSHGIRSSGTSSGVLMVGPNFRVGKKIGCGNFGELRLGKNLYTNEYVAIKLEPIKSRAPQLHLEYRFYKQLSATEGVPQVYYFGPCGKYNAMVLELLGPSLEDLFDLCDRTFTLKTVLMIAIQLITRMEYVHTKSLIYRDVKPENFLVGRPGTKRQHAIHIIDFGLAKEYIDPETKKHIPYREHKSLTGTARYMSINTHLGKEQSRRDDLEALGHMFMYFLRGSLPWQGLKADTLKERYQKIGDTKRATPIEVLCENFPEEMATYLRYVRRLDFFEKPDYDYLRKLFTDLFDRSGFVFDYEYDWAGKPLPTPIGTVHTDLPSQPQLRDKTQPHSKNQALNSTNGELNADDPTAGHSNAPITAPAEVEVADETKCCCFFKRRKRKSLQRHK
Sequence of Serine/threonine-protein kinase PLK2 (Q9NYY3 whole entry, the tested form may be a part): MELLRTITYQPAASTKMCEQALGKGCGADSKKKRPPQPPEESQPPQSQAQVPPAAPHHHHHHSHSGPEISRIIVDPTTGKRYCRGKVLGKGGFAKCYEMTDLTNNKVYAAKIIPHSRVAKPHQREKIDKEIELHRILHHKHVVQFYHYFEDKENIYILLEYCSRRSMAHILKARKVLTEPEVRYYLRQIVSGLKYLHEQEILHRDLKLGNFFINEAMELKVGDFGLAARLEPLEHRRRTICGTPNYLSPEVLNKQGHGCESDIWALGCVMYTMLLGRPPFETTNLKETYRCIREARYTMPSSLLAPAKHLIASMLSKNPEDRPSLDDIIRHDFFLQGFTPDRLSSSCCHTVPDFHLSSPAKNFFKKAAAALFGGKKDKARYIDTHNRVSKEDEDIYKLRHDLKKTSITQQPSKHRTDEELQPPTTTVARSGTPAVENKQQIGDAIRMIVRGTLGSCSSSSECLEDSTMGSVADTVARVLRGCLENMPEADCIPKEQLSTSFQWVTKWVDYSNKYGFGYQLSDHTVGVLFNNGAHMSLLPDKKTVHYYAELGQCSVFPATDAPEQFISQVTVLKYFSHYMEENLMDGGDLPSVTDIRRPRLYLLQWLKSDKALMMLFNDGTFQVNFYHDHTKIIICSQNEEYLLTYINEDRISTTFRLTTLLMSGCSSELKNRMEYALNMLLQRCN
Sequence of Rhodopsin kinase GRK1 (Q15835 whole entry): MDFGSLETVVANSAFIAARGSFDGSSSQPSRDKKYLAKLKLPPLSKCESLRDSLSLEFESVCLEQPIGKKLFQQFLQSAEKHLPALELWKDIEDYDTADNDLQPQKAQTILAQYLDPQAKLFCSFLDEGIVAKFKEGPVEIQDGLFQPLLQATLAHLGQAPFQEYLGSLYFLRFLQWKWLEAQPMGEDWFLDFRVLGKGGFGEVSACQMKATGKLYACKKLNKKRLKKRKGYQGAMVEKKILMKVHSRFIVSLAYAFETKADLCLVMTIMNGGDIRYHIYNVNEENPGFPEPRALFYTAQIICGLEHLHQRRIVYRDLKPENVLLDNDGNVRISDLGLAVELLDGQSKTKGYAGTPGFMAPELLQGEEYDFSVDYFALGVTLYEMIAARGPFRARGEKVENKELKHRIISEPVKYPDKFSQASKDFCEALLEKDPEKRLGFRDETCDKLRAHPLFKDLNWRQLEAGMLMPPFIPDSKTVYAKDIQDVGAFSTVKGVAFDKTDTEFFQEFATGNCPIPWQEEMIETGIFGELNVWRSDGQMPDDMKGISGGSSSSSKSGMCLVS
Sequence of Macrophage colony-stimulating factor 1 receptor (P07333 20-972 Y969C limits assumed): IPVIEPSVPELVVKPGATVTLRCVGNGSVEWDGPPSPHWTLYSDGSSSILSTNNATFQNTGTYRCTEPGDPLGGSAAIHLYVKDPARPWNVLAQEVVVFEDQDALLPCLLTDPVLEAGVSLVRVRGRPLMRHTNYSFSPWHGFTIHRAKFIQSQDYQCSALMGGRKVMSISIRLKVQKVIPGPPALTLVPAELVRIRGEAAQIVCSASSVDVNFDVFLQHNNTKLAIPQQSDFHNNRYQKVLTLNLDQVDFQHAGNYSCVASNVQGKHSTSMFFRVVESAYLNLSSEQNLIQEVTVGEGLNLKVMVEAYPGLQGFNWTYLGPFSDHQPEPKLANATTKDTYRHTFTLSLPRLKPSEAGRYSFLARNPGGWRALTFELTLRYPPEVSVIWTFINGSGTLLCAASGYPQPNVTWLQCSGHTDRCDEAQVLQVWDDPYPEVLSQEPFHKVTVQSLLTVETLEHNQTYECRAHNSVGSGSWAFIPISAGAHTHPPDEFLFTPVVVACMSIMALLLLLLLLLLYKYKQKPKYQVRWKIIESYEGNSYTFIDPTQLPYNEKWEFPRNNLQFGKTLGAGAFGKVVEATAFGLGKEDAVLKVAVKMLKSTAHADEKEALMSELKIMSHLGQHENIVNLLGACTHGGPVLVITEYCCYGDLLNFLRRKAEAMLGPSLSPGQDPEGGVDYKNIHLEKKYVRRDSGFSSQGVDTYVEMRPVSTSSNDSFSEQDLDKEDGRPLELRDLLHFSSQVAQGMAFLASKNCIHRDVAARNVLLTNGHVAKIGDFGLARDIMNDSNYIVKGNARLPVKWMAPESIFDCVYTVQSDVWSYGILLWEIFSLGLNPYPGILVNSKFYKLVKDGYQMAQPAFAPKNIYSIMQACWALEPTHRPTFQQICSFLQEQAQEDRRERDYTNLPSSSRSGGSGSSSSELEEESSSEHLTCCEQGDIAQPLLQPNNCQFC
Sequence of NUAK family SNF1-like kinase 1 (O60285 whole entry): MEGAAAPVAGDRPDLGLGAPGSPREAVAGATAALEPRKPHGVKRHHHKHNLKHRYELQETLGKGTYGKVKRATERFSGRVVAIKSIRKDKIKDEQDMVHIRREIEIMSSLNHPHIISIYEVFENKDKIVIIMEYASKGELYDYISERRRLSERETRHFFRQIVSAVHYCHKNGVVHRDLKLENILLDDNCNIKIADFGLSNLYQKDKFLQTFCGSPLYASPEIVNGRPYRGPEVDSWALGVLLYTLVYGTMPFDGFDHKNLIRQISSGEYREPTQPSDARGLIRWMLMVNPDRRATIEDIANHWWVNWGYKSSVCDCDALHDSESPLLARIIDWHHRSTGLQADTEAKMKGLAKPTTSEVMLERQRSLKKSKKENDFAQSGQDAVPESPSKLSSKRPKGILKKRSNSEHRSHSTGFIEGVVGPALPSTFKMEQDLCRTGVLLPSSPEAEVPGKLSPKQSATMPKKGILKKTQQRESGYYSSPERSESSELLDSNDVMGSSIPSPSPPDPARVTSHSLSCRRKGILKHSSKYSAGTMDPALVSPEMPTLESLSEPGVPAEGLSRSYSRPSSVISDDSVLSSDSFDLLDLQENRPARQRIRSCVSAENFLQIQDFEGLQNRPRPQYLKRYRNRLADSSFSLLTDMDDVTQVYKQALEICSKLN

## CN(C)c1ccc(C(=O)Nc2cccc(NC(=O)COc3ccc4c(=O)ccoc4c3)c2)cc1
[1]
  CLint scaled: 2260 mL/min/kg
[2]
  IC50: > 10 µM
[3]
  IC50: > 10 µM
[4]
  IC50: > 10 µM
[5]
  IC50: > 10 µM
[6]
  IC50: > 10 µM
[7]
  IC50: > 10 µM
[8]
  IC50: > 10 µM
[9]
  IC50: > 10 µM
[10]
  IC50: > 10 µM
[11]
  IC50: > 10 µM
Ephrin type-A receptor 4
  IC50: > 10 µM
[12]
  IC50: > 10 µM
[13]
  IC50: > 10 µM
Rhodopsin kinase GRK1
  IC50: > 10 µM
[14]
  IC50: > 10 µM
[15]
  IC50: > 10 µM
[16]
  IC50: > 10 µM
[17]
  IC50: > 10 µM
Angiopoietin-1 receptor
  IC50: > 10 µM
[18]
  IC50: > 10 µM
[19]
  IC50: > 10 µM
[20]
  IC50: > 10 µM
[21]
  IC50: > 10 µM
[22]
  IC50: > 10 µM
